From US20090050143A1, “MEDICINAL FORMULATION CONTAINER WITH A TREATED METAL SURFACE” (priority 2006, published 2009)

Experiments:
Type in all cases: physicochemical
[1] = Triamcinolone acetonide remaining after storage with aluminum oxide powder (HPLC)
Experimental: Aluminum oxide powder (Aldrich, neutral, activated Brockmann I, 150 mesh), which mimics aluminum oxide existing on the inner surface of aluminum containers was surface treated by being immersed in a 0.1% w/w solution of A1 in methyl tertiary butyl ether (analytical reagent grade) for 30 minutes while exposed to ultrasonic agitation. The methyl tertiary butyl ether solution was decanted and the powder was allowed to air dry. A triamcinolone stock solution (4 mM) was prepared by adding triamcinolone acetonide to ethanol. Approximately 0.1 g of treated powder was then placed in a vial containing 2 mL of triamcinolone stock solution and stored at 70° C. An extract of the triamcinolone solution was taken after one day of storage and analyzed using high performance liquid chromatography to determine remaining drug content. The amount of drug remaining is reported (in Table 1) as a percentage of the initial amount of drug present and was determined as the average of 3 independent measurements.
Aluminum oxide powder was surface treated and tested as described above with a variety of other organic surface treatment compounds. The type of compound, the amount of triamcinolone acetonide (TA) remaining after 1 day storage, and the percentage of aluminum oxide (AO) powder remaining chemically treated after exposure to drug solution in shown in Table 1.
Approximately 0.1 g of untreated aluminum oxide powder was placed in a vial containing 2 mL of triamcinolone stock solution and stored at 70° C. An extract of the triamcinolone solution was taken after one day of storage and analyzed using high performance liquid chromatography to determine remaining drug content.

[2] = Valve deposition measurement
From the text: Metered dose inhalers (MDIs) were fired 122 times to waste. The MDI was shaken for not less than 3 seconds prior to each actuation with a delay of at least 30 seconds between successive actuations. An additional 5 shots were then fired to waste with the MDI in a valve up orientation to clean out the valve. The metering valves were then removed from the MDIs and the outside of the stem cleaned to remove any residual drug adhering to the outer surface. The valve was immersed in diluent (acetonitrile:water 75:25 v/v) and sonicated for approximately 2 hours followed by shaking for at least 30 minutes. An aliquot was removed and analyzed for drug content by conventional HPLC analysis (albuterol sulfate and pirbuterol acetate: 55% 100 mM triethylamine phosphate with 5 mM sodium dodecyl sulfate, pH 2.5/45% methanol v:v, UV detection at 225 nm; flunisolide hemihydrate: 60% water/40% acetonitrile v:v, UV detection at 244 nm). Results are reported as an average of 5 to 8 replicates unless otherwise noted.
Individual valve components (stem, tank, spring, ferrule, and bottle emptier) were initially soaked in isopropanol (analytical reagent grade) for 30 minutes while exposed to ultrasonic agitation. Excess solvent was removed and the components were air dried.
The valve components were then immersed in a 0.1% w/w solution of A1 in methyl tertiary butyl ether (analytical reagent grade) in a sealed flask with a vacuum valve that was placed in a sonicator bath. The flask was sonicated and a vacuum was pulled until air escaped from the small bore in the stems (at least 2 minutes). The vacuum valve was then closed and the sample maintained under vacuum and sonication for an additional 30 minutes. Excess coating solution was then removed and the metering valves were rinsed and sonicated under vacuum in fresh isopropanol (analytical reagent grade) for 15 minutes. Excess rinsing solution was then removed and the metering valves were rinsed and sonicated under vacuum a second time in fresh isopropanol (analytical reagent grade) for 15 minutes. Excess rinsing solution was again removed and the metering valves were dried at 50° C. for at least 12 hours. The components were then assembled to form treated metered dose inhaler metering valves.
[…] Approximately 8.7 g of medicinal formulation was added to an aluminum canister with an internal coating of FEP (tetrafluoroethylene/hexafluoropropylene copolymer). The canister was then sealed by crimping a treated valve onto the canister to form an MDI. The MDIs were stored in a valve down orientation after filling to ensure contact of the formulation with the valve. The amount of albuterol sulfate adsorbed to the valve was 112 (+/−25) μg measured according to the valve deposition method described above.

[3] = Visual observation of the inside surface of the metering tanks
[4] = Triamcinolone acetonide remaining after storage in stainless steel canister (HPLC); conditions: 2 mM in ethanol
Experimental: The internal surface of a stainless steel metered dose inhaler canister was treated with compound A1 (n-C4F9—(CH2)11—PO3H2) as follows. The canister was initially soaked in heptane (analytical reagent grade) for 30 minutes while exposed to ultrasonic agitation. The canister was then rinsed with heptane (analytical reagent grade) for one minute followed by a rinse with isopropanol (analytical reagent grade) and allowed to air dry. The canister was then immersed in a 0.1% w/w solution of A1 in methyl tertiary butyl ether (analytical reagent grade) for 30 minutes while exposed to ultrasonic agitation. The canister was then rinsed in methyl tertiary butyl ether (analytical reagent grade) for one minute and allowed to air dry.
A triamcinolone stock solution (2 mM) was prepared by adding triamcinolone acetonide to ethanol. The canister was filled with 5 mL of the triamcinolone stock solution, sealed and stored at 70° C. An extract of the triamcinolone solution was taken after one day of storage and analyzed using high performance liquid chromatography to determine remaining drug content. […] An extract of the triamcinolone solution was taken after 7 days of storage and analyzed using high performance liquid chromatography to determine remaining drug content. The amount of triamcinolone acetonide remaining after 7 days was 83.0%.
An untreated stainless steel canister was filled with the medicinal formulation of Example 11. The amount of triamcinolone acetonide remaining after 1 day was 88.0%. An extract of the triamcinolone solution was taken after 7 days of storage and analyzed using high performance liquid chromatography to determine remaining drug content. The amount of triamcinolone acetonide remaining after 7 days was 18.0%.

[5] = A1-treated valve, 0.02% w/w in HFA-227
[6] = untreated valve, 0.02% w/w in HFA-227
[7] = A1-treated valve vs untreated valves, 0.02% w/w in HFA-227
[8] = A1-treated valve, 0.05% w/w and 10% w/w ethanol in HFA-227
[9] = untreated valve, 0.05% w/w and 10% w/w ethanol in HFA-227

For `CC(C)CCCC(C)CCCC(C)CCCC(C)CCP(=O)(O)O` (stereo not drawn) [A2, 1-phosphono-3,7,11,15-tetramethylhexadecane], the “% TA remaining” value ([1]; 24 h, 4 mM) was 97.4 (+/−0.1) %.

For `CCCCCCCCCCCCCCCCP(=O)(O)O` [A3, 1-phosphonohexadecane], the “% TA remaining” value ([1]; 24 h, 4 mM) was 93.2 (+/−3.6) %.

With `CC(C)CCCC(C)CCCC(C)CCCC(C)CCC(=O)O` (stereo not drawn) [A5, Phytanyl carboxylic acid] the “% TA remaining” value ([1]; 24 h, 4 mM) was 71.5 (+/−3.2) %.

With `CC1(C)O[C@@H]2C[C@H]3[C@@H]4C[C@H](F)C5=CC(=O)C=C[C@]5(C)[C@H]4[C@@H](O)C[C@]3(C)[C@]2(C(=O)CO)O1` [flunisolide] the “amount of drug adsorbed to the valve” value [2, 5] was 23 (+/−7) μg, the “amount of drug adsorbed to the valve” value [2, 6] was 41 (+/−7) μg and the “visual observation of drug deposition in metering tanks” value (“visual observation of drug deposition” below) [3, 7] was “considerably less drug deposition”.

In the case of `CC1(C)O[C@@H]2C[C@H]3[C@@H]4CCC5=CC(=O)C=C[C@]5(C)[C@@]4(F)[C@@H](O)C[C@]3(C)[C@]2(C(=O)CO)O1` [triamcinolone acetonide], the “amount of triamcinolone acetonide remaining” value ([4]; A1-treated stainless steel canister, 70° C, 1 day) is reported as 94.9%, the “amount of triamcinolone acetonide remaining” value ([4]; A1-treated stainless steel canister, 70° C, 7 days) is reported as 83.0% and the “amount of triamcinolone acetonide remaining” value ([4]; untreated stainless steel canister, 1 day) is reported as 88.0%. The “amount of triamcinolone acetonide remaining” value ([4]; untreated stainless steel canister, 7 days) was 18.0% and the “% TA remaining” value ([1]; untreated aluminum oxide powder (C3), 4 mM triamcinolone acetonide in ethanol, 70° C, 1 day) was 11.5 (+/−1.2) %.

With albuterol sulfate the “amount of drug adsorbed to the valve” value [2, 8] was 67 (+/−18) μg, the “amount of drug adsorbed to the valve” value ([2]; A1-treated valve, 0.05% w/w in HFA-134A, stored valve down) was 112 (+/−25) μg and the “amount of drug adsorbed to the valve” value ([2]; A1-treated valve, 0.05% w/w in HFA-227) was 134 (+/−54) μg. The “amount of drug adsorbed to the valve” value [2, 9] was 75 (+/−9) μg, the “amount of drug adsorbed to the valve” value ([2]; untreated valve, 0.05% w/w in HFA-134A) was 138 (+/−24) μg and the “amount of drug adsorbed to the valve” value ([2]; untreated valve, 0.05% w/w in HFA-227) was 167 (+/−28) μg. The “visual observation of drug deposition” value ([3]; A1-treated valve vs untreated valves, 0.05% w/w in HFA-134A) was “considerably less drug deposition”, the “visual observation of drug deposition” value ([3]; A1-treated valve vs untreated valves, 0.05% w/w in HFA-227) was “considerably less drug deposition” and the “visual observation of drug deposition” value [3, 8] was “minimal drug deposition”. For the same molecule, the “visual observation of drug deposition” value [3, 9] was “minimal drug deposition”.

In the case of pirbuterol acetate, the “amount of drug adsorbed to the valve” value [2, 5] is reported as 36 (+/−13) μg, the “amount of drug adsorbed to the valve” value [2, 6] is reported as 43 (+/−12) μg and the “visual observation of drug deposition” value [3, 7] is reported as “considerably less drug deposition”.
